The target of data set [1] is T1, Replicase polyprotein 1a (Severe acute respiratory syndrome-related coronavirus, UniProt P0C6U8). Put plainly: (§1) Inhibition of SARS-CoV 3CLpro expressed in Escherichia coli BL21 (DE3) by FRET assay.
Data set [2] is described as follows: Inhibition of SARS-CoV PL-pro after 10 mins by luminescence assay. Further details: species or system Severe acute respiratory syndrome-related coronavirus.
Data set [3] has as its target Replicase polyprotein 1a (Severe acute respiratory syndrome-related coronavirus) (UniProt P0C6U8). Put plainly: Inhibition of SARS-CoV 3CLpro expressed in Escherichia coli BL21 (DE3) at 100 uM by FRET assay in presence of 0.01% Triton X-100.
Data set [4] shares this target. The data set is described as §1.
Data set [5] in a line: Aqueous solubility of the compound in PBS buffer at pH 7.4 after 4 hrs by HPLC with UV detection analysis. It counts as physicochemical.
Data set [6] is described as follows: Cytotoxicity against african green monkey Vero E6 cells after 48 hrs by CellTiter-Glo luminescent cell viability assay. It counts as cell-based. The note with it: chlorocebus sabaeus. In general terms: In ATP-based viability assays light output follows the ATP content of the culture.
Data set [7] relates to Murine coronavirus. Put plainly: Inhibition of mouse coronavirus 3CLpro expressed in Escherichia coli BL21 (DE3) at 100 uM by FRET assay in absence of 0.01% Triton X-100.
Data set [8] in a line: Cytotoxicity against african green monkey Vero E6 cells assessed as cell death at […] after 48 hrs by CellTiter-Glo luminescent cell viability assay. It counts as cell-based. The settings on record: chlorocebus sabaeus.
The test system of data set [9] is Human coronavirus HKU1. Put plainly: Inhibition of human coronavirus HKU1 3CLpro expressed in Escherichia coli BL21 (DE3) at 100 uM by FRET assay in absence of 0.01% Triton X-100.
Data set [10] has as its target T1, Replicase polyprotein 1a. Put plainly: Inhibition of SARS-CoV 3CLpro expressed in Escherichia coli BL21 (DE3) after 2 hrs by FRET assay.
In data set [11] the test system is Murine coronavirus. Put plainly: Inhibition of mouse coronavirus 3CLpro expressed in Escherichia coli BL21 (DE3) at 100 uM by FRET assay in presence of 0.01% Triton X-100.
The test system of data set [12] is Human coronavirus HKU1. Put plainly: Inhibition of human coronavirus HKU1 3CLpro expressed in Escherichia coli BL21 (DE3) at 100 uM by FRET assay in presence of 0.01% Triton X-100.
Data set [13] deals with Replicase polyprotein 1a (Severe acute respiratory syndrome-related coronavirus) (UniProt P0C6U8). Put plainly: Inhibition of SARS-CoV 3CLpro expressed in Escherichia coli BL21 (DE3) at 100 uM by FRET assay in absence of 0.01% Triton X-100.
A short description of data set [14]: Ratio of EC50 for SARS-CoV infected in african green monkey Vero E6 cells to Ki for SARS-CoV 3CLpro. Further details: species or system Severe acute respiratory syndrome-related coronavirus.

In brackets after ≈: the same amount, converted by molar mass. Activity calls are given as the source filed them. The rule behind the calls is not given here. A value given as a limit tells only on which side of the number the result lay.

This is an account of results in ChEMBL document CHEMBL2311314 (J Med Chem, 2013).

The IC50 is the concentration that gives 50% inhibition. `CCN(CC)c1ccc(C(=O)On2nnc3ccccc32)cc1` registered a half-inhibitory concentration (IC50) against Replicase polyprotein 1a [1] of 11.1 µM.
For `CCC(C)c1ccc(N(C(=O)c2ccco2)C(C(=O)NC2CCCC2)c2cccnc2)cc1` (stereo not drawn), the half-maximal inhibitory concentration (IC50) in data set [2] came to 34 µM; against Replicase polyprotein 1a [1], 2.2 µM.
By inhibition is commonly meant the share of the control response that was lost under treatment. Turning to `CC(C)(C)NC(=O)C(c1cccnc1)N(C(=O)c1ccncc1)c1ccc(C(C)(C)C)cc1` (stereo not drawn), the inhibition in data set [3] is more than 49%.
`CC(C)(C)NC(=O)C(c1cccnc1)N(C(=O)c1cn[nH]c1)c1ccc(C(C)(C)C)cc1` (stereo not drawn): the inhibition in data set [3] is more than 49%.
The same measure, in the same setting: as for `CC(C)(C)NC(=O)C(c1cccnc1)N(C(=O)Cc1ccccc1)c1ccc(C(C)(C)C)cc1` (stereo not drawn), the figure is more than 49%; as for `COc1cccc(C(=O)N(c2ccc(C(C)(C)C)cc2)C(C(=O)NC(C)(C)C)c2cccnc2)c1` (stereo not drawn), more than 49%.
Regarding `CC(C)(C)NC(=O)C(c1cccnc1)N(C(=O)c1ccco1)c1ccc(F)cc1` (stereo not drawn), in [4], the inhibition result is “inactive”.
`O=C(Oc1cncc(Br)c1)c1cccs1` yielded an IC50 on Replicase polyprotein 1a [1] of 0.5 µM.
As usually defined, the solubility is the dissolved amount per volume that the medium holds. In the case of `CC(C)(C)NC(=O)[C@@H](c1cccnc1)N(C(=O)c1ccco1)c1ccc(C(C)(C)C)cc1`, the solubility at 4 h in [5] was determined as 219 µM (≈ 94.9 µg/mL).
Turning to `COc1ccc(C(=O)N(c2ccc(C(C)(C)C)cc2)C(C(=O)NC(C)(C)C)c2cccnc2)cc1` (stereo not drawn), in data set [3], the inhibition is more than 49%.
On the same count and under the same terms, the same measure for `CC(C)(C)NC(=O)C(c1cccnc1)N(C(=O)c1ncc[nH]1)c1ccc(C(C)(C)C)cc1` (stereo not drawn): 49%.
With `CC(C)c1ccc(N(C(=O)c2ccco2)C(C(=O)NC(C)(C)C)c2cccnc2)cc1` (stereo not drawn), inhibition on Replicase polyprotein 1a [1] was half-maximal at 28.1 µM (IC50).
For `CC(C)(C)NC(=O)C(c1cccnc1)N(C(=O)c1cccs1)c1ccc(C(C)(C)C)cc1` (stereo not drawn), the IC50 against Replicase polyprotein 1a [1] stood at 50 µM. In [3], the inhibition was more than 49%.
In the case of `CC(C)(C)NC(=O)C(c1cccnc1)N(C(=O)c1ccc[nH]1)c1ccc(C(C)(C)C)cc1` (stereo not drawn), the inhibition in data set [3] is more than 49%.
On Replicase polyprotein 1a [1], `CC(C)(C)NC(=O)C(c1ccncc1)N(C(=O)c1ccco1)c1ccc(C(C)(C)C)cc1` (stereo not drawn) had an IC50 of 45 µM.
Regarding `CC(C)(C)NC(=O)C(c1cccnc1)N(C(=O)Cc1cnc[nH]1)c1ccc(C(C)(C)C)cc1` (stereo not drawn), the inhibition in data set [3] was more than 49%.
On the same count and under the same terms, as for `CC(C)CC(=O)N(c1ccc(C(C)(C)C)cc1)C(C(=O)NC(C)(C)C)c1cccnc1` (stereo not drawn), the figure is more than 49%.
In the case of `Cn1cnc(C(=O)N(c2ccc(C(C)(C)C)cc2)C(C(=O)NC(C)(C)C)c2cccnc2)c1` (stereo not drawn), the midpoint of inhibition against Replicase polyprotein 1a [1], the IC50, lay at 75 µM. The inhibition in data set [3] is more than 49%.
With `Cc1ccc(C(C(=O)NC(C)(C)C)N(C(=O)c2ccco2)c2ccc(C(C)(C)C)cc2)cn1` (stereo not drawn), the inhibition in data set [3] was less than 15%.
For the molecule `CC(C)(C)NC(=O)C(c1cccnc1)N(C(=O)c1ccccc1O)c1ccc(C(C)(C)C)cc1` (stereo not drawn), the inhibition in data set [3] was more than 49%.
For the molecule `CC(C)(C)NC(=O)C(c1cccnc1)N(C(=O)CC(F)(F)F)c1ccc(C(C)(C)C)cc1` (stereo not drawn), the inhibition in [3] stood at 57%.
As for `CC(C)(C)NC(=O)C(c1cccnc1)N(C(=O)C1=NC=NC1)c1ccc(C(C)(C)C)cc1` (stereo not drawn), the IC50 at Replicase polyprotein 1a [1] was 6 µM. In addition, the inhibition in [3] is more than 49%.
In turn, `CC(C)(C)NC(=O)C(c1cnccn1)N(C(=O)c1ccco1)c1ccc(C(C)(C)C)cc1` (stereo not drawn) yielded an IC50 at Replicase polyprotein 1a [1] of 5.5 µM.
In the case of `CC(C)(C)NC(=O)C(c1cccnc1)N(C(=O)c1cc[nH]n1)c1ccc(C(C)(C)C)cc1` (stereo not drawn), the inhibition in data set [3] was found to be 56%.
On the same count and under the same terms, as for `CC(C)(C)NC(=O)C(c1cc[nH]n1)N(C(=O)c1ccco1)c1ccc(C(C)(C)C)cc1` (stereo not drawn), the figure is less than 15%.
For the molecule `CC(C)(C)NC(=O)C(c1ccsc1)N(C(=O)c1ccco1)c1ccc(C(C)(C)C)cc1` (stereo not drawn), the inhibition entry in data set [4] is “inactive”. In data set [3], the inhibition came to 11%.
Broadly, the CC50 is the concentration at which the toxic effect on the cells reaches its halfway point. Molecule `CN(C)CCCSc1ccccc1NC(=O)/C=C/c1ccccc1` [CINANSERIN] returned a CC50 at 48 h in [6] of 31 µM. For the same molecule, the CC90 at 48 h in data set [6] is 66 µM. Further, the inhibition entry (in the data set with Murine coronavirus [7]; with Human coronavirus HKU1 [9]; in the data set on Murine coronavirus [11]; in the data set with Human coronavirus HKU1 [12]; in data set [3]; in data set [13]) was “inactive” throughout. For the same molecule, the Activity in data set [8] is more than 90%. Further, at Replicase polyprotein 1a [10], the IC50 worked out at 5 µM.
`COc1ccccc1C(=O)N(c1ccc(C(C)(C)C)cc1)C(C(=O)NC(C)(C)C)c1cccnc1` (stereo not drawn): the inhibition in [3] is more than 49%.
For the molecule `CC(C)(C)NC(=O)C(c1cccnc1)N(C(=O)c1cccc(O)c1)c1ccc(C(C)(C)C)cc1` (stereo not drawn), the inhibition in data set [3] was more than 49%.
Same read-out and setting: as for `CC(C)(C)NC(=O)C(c1cccnc1)N(C(=O)C1CCCO1)c1ccc(C(C)(C)C)cc1` (stereo not drawn), the figure is more than 49%.
Same read-out and setting: as for `CC(C)(C)NC(=O)C(c1c[nH]cn1)N(C(=O)c1ccco1)c1ccc(C(C)(C)C)cc1` (stereo not drawn), the figure is 23%.
`CC(C)(C)NC(=O)C(c1cccnc1)N(C(=O)c1ccc(Cl)o1)c1ccc(C(C)(C)C)cc1` (stereo not drawn): inhibition against Replicase polyprotein 1a [1] was half-maximal at 5.2 µM (IC50). Further, the inhibition in data set [3] is more than 49%.
Take `CC(C)(C)NC(=O)C(c1cccnc1)N(C(=O)c1cccnc1)c1ccc(C(C)(C)C)cc1` (stereo not drawn): the inhibition in [3] was more than 49%.
With `CC(C)(C)NC(=O)C(c1cccnc1)N(C(=O)c1ccc(Cl)cc1)c1ccc(C(C)(C)C)cc1` (stereo not drawn), the inhibition in [3] is more than 49%.
Regarding `CC[C@H](NC(=O)[C@@H](NC(=O)OCc1ccccc1)[C@@H](C)OC(C)(C)C)C(=O)N[C@H](C=O)C[C@@H]1CCNC1=O`, in data set [14], the Ratio turned out to be 11.5.
On to `Cc1ccoc1C(=O)N(c1ccc(C(C)(C)C)cc1)C(C(=O)NC(C)(C)C)c1cccnc1` (stereo not drawn), for which the inhibition in [3] turned out to be 53%.
Same read-out and setting: the same measure for `CC(C)(C)NC(=O)C(c1cccnc1)N(C(=O)c1ccc(O)cc1)c1ccc(C(C)(C)C)cc1` (stereo not drawn): more than 49%; for `CC(C)(C)NC(=O)C(c1c[nH]nn1)N(C(=O)c1ccco1)c1ccc(C(C)(C)C)cc1` (stereo not drawn): 23%.
`CC(C)(C)NC(=O)C(c1cccnc1)N(C(=O)c1ncco1)c1ccc(C(C)(C)C)cc1` (stereo not drawn) had an IC50 against Replicase polyprotein 1a [1] of 47 µM. In addition, the inhibition in data set [3] was more than 49%.
In the case of `COCC(=O)N(c1ccc(C(C)(C)C)cc1)C(C(=O)NC(C)(C)C)c1cccnc1` (stereo not drawn), the inhibition in [3] was more than 49%.
For `C=C(Cc1cccc(C)c1)C1=CC=C(c2ccc(C)cc2)C1`, on Replicase polyprotein 1a [1], the IC50 was 13 µM.
For `CC(C)(C)NC(=O)C(c1cccnc1)N(C(=O)CO)c1ccc(C(C)(C)C)cc1` (stereo not drawn), in data set [3], the inhibition was more than 49%.
As for `CC(C)(C)NC(=O)C(c1cccnc1)N(C(=O)c1ccc(F)cc1)c1ccc(C(C)(C)C)cc1` (stereo not drawn), the inhibition in data set [3] is more than 49%.
The same measure, in the same setting: the same measure for `CC(C)(C)NC(=O)C(c1ccccn1)N(C(=O)c1ccco1)c1ccc(C(C)(C)C)cc1` (stereo not drawn): less than 15%.
Consider `CC(C)(C)NC(=O)C(c1ccnnc1)N(C(=O)c1ccco1)c1ccc(C(C)(C)C)cc1` (stereo not drawn), for which, on Replicase polyprotein 1a [1], the IC50 was found to be 10 µM.
With `CC(C)(C)NC(=O)C(c1cccnc1)N(C(=O)c1ccco1)C1CC1` (stereo not drawn), the inhibition result in data set [4] was “inactive”.
In the case of `CC(C)(C)NC(=O)C(c1cccnc1)N(C(=O)c1cnco1)c1ccc(C(C)(C)C)cc1` (stereo not drawn), 39 µM corresponded to half-maximal inhibition on Replicase polyprotein 1a [1] (IC50). In data set [3], the inhibition was more than 49%.
Turning to `CC(C)(C)NC(=O)C(c1cccnc1)N(C(=O)c1ccccn1)c1ccc(C(C)(C)C)cc1` (stereo not drawn), in [3], the inhibition was more than 49%.
The same measure, in the same setting: the same measure for `CC(C)(C)NC(=O)C(c1cn[nH]c1)N(C(=O)c1ccco1)c1ccc(C(C)(C)C)cc1` (stereo not drawn): 16%.
`CC(C)(C)NC(=O)C(c1cccnc1)N(C(=O)c1ncccn1)c1ccc(C(C)(C)C)cc1` (stereo not drawn): in data set [3], the inhibition was more than 49%.
On the same count and under the same terms, as for `Cc1ccc(C(=O)N(c2ccc(C(C)(C)C)cc2)C(C(=O)NC(C)(C)C)c2cccnc2)o1` (stereo not drawn), the figure is 55%.
